Source: patent US9023844B2, “Heterocyclylpyri (mi) dinylpyrazole as fungicidals” (Bayer Intellectual Property GmbH, priority 2011, dated 2015)
Read-outs that look alike come from different tables or passages of the source.

How the values were obtained:
Puccinia recondita = test: Example E: Puccinia test (wheat) / preventive; assay type: in vivo; conditions: in vivo
Pyrenophora teres = test: Example D: Pyrenophora test (barley) / preventive; assay type: in vivo
[1] = Determination of log P values by HPLC on a reverse phase column (C18), EEC-Directive 79/831 Annex V.A8 (Methods A, B, C); assay type: physicochemical; conditions: for chromatographic logP: reverse phase C18 HPLC column
Experimental: (§1) Note on the determination of the log P values and mass detection: The stated log P values were determined in accordance with EEC-Directive 79/831 Annex V.A8 by HPLC (High Performance Liquid Chromatography) on a reverse phase column (C18). Agilent 1100 LC system; 50*4.6 Zorbax Eclipse Plus C18 1.8 micron; eluent A: acetonitrile (0.1% formic acid); eluent B: water (0.09% formic acid); linear gradient from 10% acetonitrile to 95% acetonitrile in 4.25 mins, then 95% acetonitrile for a further 1.25 mins; oven temperature 55° C.; flow rate: 2.0 mL/min. The mass detection was effected with an Agilend MSD system.
as §1, with “HP1100;” for “Agilent 1100 LC system;”, “(0.08%” for “(0.09%”, “5%” for “10%”, “1.70 min,” for “4.25 mins,”, “1.00 min;” for “1.25 mins;”, “the Micronass ZQ2000 mass detector from Waters.” for “an Agilend MSD system.”
Note on the determination of the log P values and mass detection: The stated log P values were determined in accordance with EEC-Directive 79/831 Annex V.A8 by UPLC (Ultra Performance Liquid Chromatography) on a reverse phase column (C18). HP1100; 50*2.1 Zorbax Eclipse Plus C18 1.8 micron; eluent A: acetonitrile (0.09% formic acid); eluent B: water (0.1% formic acid); linear gradient from 10% A to 95% A in 3.25 min; oven temperature 40° C.; flow rate: 0.8 mL/min. The mass detection was effected with the LCT Premier or SQD mass detector from Waters.

Uromyces appendiculatus = test: Example B: Uromyces test (beans) / preventive; assay type: in vivo; conditions: in vivo
Pyricularia oryzae = assay type: in vivo
[2] = Method B (HPLC, reverse phase C18)
[3] = pH 2.7, values in the synthesis examples, HPLC, reverse phase C18, read-out: log P (pH 2.7)
[4] = pH 2.3, intermediates of formula [II], HPLC, reverse phase C18, read-out: LogP (pH 2.3)
[5] = pH 2.3, intermediates of formula [IV] and [XXXVII], HPLC, reverse phase C18, read-out: LogP (pH 2.3)
[6] = pH 2.3, intermediates of formula [VI], HPLC, reverse phase C18, read-out: LogP (pH 2.3)

For `O=C(CCc1ccccc1)Nc1cc(-c2c(-c3ccccc3)nn3c2OCCC3)ccn1` [Example 15], the efficacy (Puccinia recondita) was 95%, the efficacy (Pyrenophora teres; in vivo) was 95% and the LogP [1, 2] was 2.04. The efficacy (Uromyces appendiculatus) was 83% and the efficacy (Pyricularia oryzae; in vivo) was 94%.

`O=C(CCc1ccccc1)Nc1cc(-c2c(-c3ccc(F)cc3F)nn3c2OCCC3)ccn1` [Example 44] showed an efficacy (Puccinia recondita) of 95%, a LogP [1, 2] of 2.23 and an efficacy (Uromyces appendiculatus) of 94%. It also gave an efficacy (Pyricularia oryzae; in vivo) of 78%.

In the case of `CC(=O)Nc1cc(-c2c(-c3ccc(F)cc3)nn3c2NCCC3)ccn1` [Example 59, N-{4-[2-(4-Fluorophenyl)-4,5,6,7-tetrahydropyrazolo[1,5-a]pyrimidin-3-yl]pyridin-2-yl}acetamide], the efficacy (Pyrenophora teres; 500 ppm of active ingredient, barley, preventive spray, evaluated 7-9 days after inoculation) is reported as 80%, the chromatographic logP ([1]; Method C (HPLC, reverse phase C18), read-out: LogP) is reported as 1.48 and the chromatographic logP [1, 3] is reported as 1.48. The efficacy (Pyricularia oryzae; 500 ppm of active ingredient, rice, preventive spray, evaluated 7 days after inoculation) was 70%.

Molecule `CC(=O)Nc1cc(-c2c(-c3ccsc3)nn3c2OC[Si](C)(C)C3)ccn1` [Example 96] has an efficacy (Pyrenophora teres; in vivo) of 95%, a LogP ([1]; Method C (HPLC, reverse phase C18)) of 1.62 and an efficacy (Pyricularia oryzae; in vivo) of 70%.

`Nc1cc(-c2c(-c3ccccc3)nn3cccnc23)ccn1` [[II-a-1], 4-(2-Phenylpyrazolo[1,5-a]pyrimidin-3-yl)pyridin-2-amine] showed a chromatographic logP [1, 4] of 0.98 and a chromatographic logP [1, 3] of 0.98.

Molecule `Nc1cc(-c2c(-c3ccccc3)nn3c2NCCC3)ccn1` [[II-b-1], 4-(2-Phenyl-4,5,6,7-tetrahydropyrazolo[1,5-a]pyrimidin-3-yl)pyridin-2-amine] has a chromatographic logP [1, 4] of 1.05 and a chromatographic logP [1, 3] of 1.05.

With `CC1CCOc2c(B3OC(C)(C)C(C)(C)O3)c(-c3ccc(F)cc3)nn21` (stereo not drawn) [[III-1], 2-(4-fluorophenyl)-7-methyl-3-(4,4,5,5-tetramethyl-1,3,2-dioxaborolan-2-yl)-6,7-dihydro-5H-pyrazolo[5,1-b][1,3]oxazine] the chromatographic logP [1, 3] was 3.5.

`Brc1c(-c2ccccc2)nn2c1OCCC2` [[IV-1], 3-bromo-2-phenyl-6,7-dihydro-5H-pyrazolo[5,1-b][1,3]oxazine] showed a chromatographic logP [1, 5] of 2.66 and a chromatographic logP [1, 3] of 2.66.

Molecule `Fc1ccc(-c2nn3c(c2Br)OCCC3)cc1` [[IV-2], 3-bromo-2-(4-fluorophenyl)-6,7-dihydro-5H-pyrazolo[5,1-b][1,3]oxazine] has a chromatographic logP [1, 5] of 2.86 and a chromatographic logP [1, 3] of 2.86.

In the case of `Fc1ccc(-c2nn3c(c2Br)OCCC3)c(F)c1` [[IV-3], 3-bromo-2-(2,4-difluorophenyl)-6,7-dihydro-5H-pyrazolo[5,1-b][1,3]oxazine], the chromatographic logP [1, 5] is reported as 2.7 and the chromatographic logP [1, 3] is reported as 2.7.

For `Fc1ccc(-c2nn3c(c2Br)OCC3)cc1` [[IV-4], 7-bromo-6-(4-fluorophenyl)-2,3-dihydropyrazolo[5,1-b][1,3]oxazole], the chromatographic logP [1, 5] was 2.69 and the chromatographic logP [1, 3] was 2.69.

For `C[Si]1(C)COc2c(Br)c(-c3ccc(F)cc3)nn2C1` [[IV-5], 8-bromo-7-(4-fluorophenyl)-3,3-dimethyl-3,4-dihydro-2H-pyrazolo[5,1-b][1,3,5]oxazasiline], the chromatographic logP [1, 5] was 3.83 and the chromatographic logP [1, 3] was 3.83.

Work on `CC1CCOc2c(Br)c(-c3ccc(F)cc3)nn21` (stereo not drawn) [[IV-6], 3-bromo-2-(4-fluorophenyl)-7-methyl-6,7-dihydro-5H-pyrazolo[5,1-b][1,3]oxazine] yielded a chromatographic logP [1, 5] of 3.36 and a chromatographic logP [1, 3] of 3.36.

For `Fc1ccc(-c2nn3c(c2Br)OCC(F)(F)C3)cc1` [[IV-7], 3-bromo-6,6-difluoro-2-(4-fluorophenyl)-6,7-dihydro-5H-pyrazolo[5,1-b][1,3]oxazine], the chromatographic logP [1, 5] was 3.3 and the chromatographic logP [1, 3] was 3.3.

Molecule `CC1Oc2c(Br)c(-c3ccc(F)cc3)nn2C1C` (stereo not drawn) [[IV-8], 7-bromo-6-(4-fluorophenyl)-2,3-dimethyl-2,3-dihydropyrazolo[5,1-b][1,3]oxazole] has a chromatographic logP [1, 5] of 3.39, a chromatographic logP ([1]; pH 2.7, major isomer of the diastereoisomer mixture, read-out: Log P (pH 2.7), major isomer) of 3.39 and a chromatographic logP ([1]; pH 2.7, minor isomer of the diastereoisomer mixture, read-out: Log P (pH 2.7), minor isomer) of 3.46.

`CC1(C)COc2c(Br)c(-c3ccc(F)cc3)nn2C1` [[IV-10], 3-bromo-2-(4-fluorophenyl)-6,6-dimethyl-6,7-dihydro-5H-pyrazolo[5,1-b][1,3]oxazine] gave a chromatographic logP [1, 5] of 3.63 and a chromatographic logP [1, 3] of 3.63.

With `CC1(C#N)COc2c(Br)c(-c3ccc(F)cc3)nn2C1` (stereo not drawn) [[IV-11], 3-bromo-2-(4-fluorophenyl)-6-methyl-6,7-dihydro-5H-pyrazolo[5,1-b][1,3]oxazine-6-carbonitrile] the chromatographic logP [1, 5] was 2.94 and the chromatographic logP [1, 3] was 2.94.

`C[Si]1(C)COc2c(Br)c(-c3cccs3)nn2C1` [[IV-12], 8-bromo-3,3-dimethyl-7-(2-thienyl)-3,4-dihydro-2H-pyrazolo[5,1-b][1,3,5]oxazasiline] gave a chromatographic logP [1, 5] of 3.58 and a chromatographic logP [1, 3] of 3.58.

`Cc1coc2c(Br)c(-c3ccc(F)cc3)nn12` [[IV-a-1], 7-bromo-6-(4-fluorophenyl)-3-methylpyrazolo[5,1-b][1,3]oxazole] gave a chromatographic logP [1, 5] of 3.56 and a chromatographic logP [1, 3] of 3.56.

Molecule `CCc1coc2c(Br)c(-c3ccc(F)cc3)nn12` [[IV-a-2], 7-bromo-3-ethyl-6-(4-fluorophenyl)pyrazolo[5,1-b][1,3]oxazole] has a chromatographic logP [1, 5] of 4.18 and a chromatographic logP [1, 3] of 4.18.

Work on `Fc1ccc(-c2nn3ccoc3c2Br)cc1` [[IV-a-3], 7-bromo-6-(4-fluorophenyl)pyrazolo[5,1-b][1,3]oxazole] yielded a chromatographic logP [1, 5] of 3.07 and a chromatographic logP [1, 3] of 3.07.

In the case of `Brc1c(-c2ccccc2)nn2ccoc12` [[IV-a-4], 7-bromo-6-phenylpyrazolo[5,1-b][1,3]oxazole], the chromatographic logP [1, 5] is reported as 2.91 and the chromatographic logP [1, 3] is reported as 2.91.

`c1ccc(-c2cc3n(n2)CCCO3)cc1` [[VI-1], 2-phenyl-6,7-dihydro-5H-pyrazolo[5,1-b][1,3]oxazine] gave a chromatographic logP [1, 6] of 2.04 and a chromatographic logP [1, 3] of 2.04.

`Fc1ccc(-c2cc3n(n2)CCCO3)cc1` [[VI-2], 2-(4-fluorophenyl)-6,7-dihydro-5H-pyrazolo[5,1-b][1,3]oxazine] gave a chromatographic logP [1, 6] of 2.18 and a chromatographic logP [1, 3] of 2.18.

Molecule `Fc1ccc(-c2cc3n(n2)CCCO3)c(F)c1` [[VI-3], 2-(2,4-difluorophenyl)-6,7-dihydro-5H-pyrazolo[5,1-b][1,3]oxazine] has a chromatographic logP [1, 6] of 2.38 and a chromatographic logP [1, 3] of 2.38.

For `CC1CCOc2cc(-c3ccc(F)cc3)nn21` (stereo not drawn) [[VI-4], 2-(4-fluorophenyl)-7-methyl-6,7-dihydro-5H-pyrazolo[5,1-b][1,3]oxazine], the chromatographic logP [1, 6] was 2.65 and the chromatographic logP [1, 3] was 2.65.

Molecule `C[Si]1(C)COc2cc(-c3ccc(F)cc3)nn2C1` [[VI-5], 7-(4-fluorophenyl)-3,3-dimethyl-3,4-dihydro-2H-pyrazolo[5,1-b][1,3,5]oxazasiline] has a chromatographic logP [1, 6] of 3.11 and a chromatographic logP [1, 3] of 3.11.

Molecule `Fc1ccc(-c2cc3n(n2)CCS3)cc1` [[VI-6], 6-(4-fluorophenyl)-2,3-dihydropyrazolo[5,1-b][1,3]thiazole] has a chromatographic logP [1, 6] of 2.53 and a chromatographic logP [1, 3] of 2.53.

Work on `CC1(C)COc2cc(-c3ccc(F)cc3)nn2C1` [[VI-10], 2-(4-fluorophenyl)-6,6-dimethyl-6,7-dihydro-5H-pyrazolo[5,1-b][1,3]oxazine] yielded a chromatographic logP [1, 6] of 2.96 and a chromatographic logP [1, 3] of 2.96.

With `CC1(C#N)COc2cc(-c3ccc(F)cc3)nn2C1` (stereo not drawn) [[VI-11], 2-(4-fluorophenyl)-6-methyl-6,7-dihydro-5H-pyrazolo[5,1-b][1,3]oxazine-6-carbonitrile] the chromatographic logP [1, 6] was 2.39 and the chromatographic logP [1, 3] was 2.39.

Molecule `O=c1cc(-c2ccc(F)cc2)[nH][nH]1` [[VII-2], 3-(4-fluorophenyl)-1H-pyrazol-5-ol] has a chromatographic logP [1, 3] of 1.11.

In the case of `Oc1cc(-c2ccc(F)cc2F)n[nH]1` [[VII-3], 3-(2,4-difluorophenyl)-1H-pyrazol-5-ol], the chromatographic logP [1, 3] is reported as 1.25.

With `Brc1c(-c2ccccc2)nn2cccnc12` [[XXXVII-1], 3-Bromo-2-phenylpyrazolo[1,5-a]pyrimidine] the chromatographic logP [1, 5] was 2.63 and the chromatographic logP [1, 3] was 2.63.

Molecule `Fc1ccc(-c2nn3cccnc3c2Br)cc1` [[XXXVII-2], 3-Bromo-2-(4-fluorophenyl)pyrazolo[1,5-a]pyrimidine] has a chromatographic logP [1, 5] of 2.8 and a chromatographic logP [1, 3] of 2.8.

`Fc1ccc(-c2cc3ncccn3n2)cc1` [[XXXVIII-1], 2-(4-Fluorophenyl)pyrazolo[1,5-a]pyrimidine] showed a chromatographic logP [1, 3] of 2.17.
